According to patent US20260242414A1, “PEPTIDE EXPRESSION CONSTRUCTS AND USES THEREOF” (KYOTO PREFECTURAL PUBLIC UNIVERSITY CORPORATION, priority 2023, published 2026):

How the values were obtained:
[1] = biological target: GFP β strand 1-10 (GFPβ1-10); experiment: cell-based or functional assay
H9c2 cells [2] = experiment: Mitochondrial respiration, Seahorse XF Cell Mito Stress Test flux analysis; format: cell-based; conditions: doxorubicin treatment; for mitochondrial respiration (oxygen consumption rate): FIG. 9I; for basal respiration: FIG. 9J; for ATP production: FIG. 9J-9M; for maximum respiration: FIG. 9K; for spare respiratory capacity: FIG. 9M; for proton leakage: FIG. 9N; for non-mitochondrial oxygen consumption: FIG. 9O
Method: Next, the effect of P110 expression on mitochondrial hyperfission was evaluated in the context of mitochondrial respiratory function. Briefly, oligomycin (2 μM), carbonyl cyanide p-trifluoromethoxyphenyl hydrazone (FCCP, 2 μM) and rotenone/antimycin A (0.5 μM), which were adjusted using the reagents in the Seahorse XF Cell Mito Stress Test Kit (103015-100, Agilent Technologies), were sequentially added to each well with 1×10^5 cells after baseline measurements with an XFe96 extracellular flux analyzer (Agilent Technologies, Santa Clara, CA, USA), and data were presented as oxygen consumption rate (pmol/min).

H9c2 cells [3] = experiment: Western blot of apoptosis-associated proteins (cleaved caspase-3, cytochrome c, mitochondrial Drp1); format: cell-based; conditions: for Drp1 in mitochondrial fractions (accumulation/aggregation): doxorubicin exposure, FIG. 10G-10H
Method: (§1) P110-expressing cells counteracted doxorubicin-induced apoptosis as well as gene transfer-associated induction of cell death (FIGS. 10A-10B). Next, doxorubicin-induced activation of caspase-3, which is a cysteine-aspartic acid protease that plays a central role in the execution-phase of cell apoptosis, was evaluated.
Hyperfission-associated release of cytochrome c from mitochondria triggers apoptosis; therefore, the release of cytochrome c in response to doxorubicin was evaluated. […] Given that P110 inhibits the recruitment of Drp1 to the mitochondrial membrane during fission, Drp1 in mitochondrial fractions were evaluated to determine whether the introduction of P110 mRNA affected this mechanism.

Drp1-Fis1 = experiment: Immunoprecipitation with Fis1 followed by immunoblotting with Drp1; format: cell-based; conditions: doxorubicin treatment, FIG. 10I-10K
Method: Association of Drp1 and Fis1 is an intracellular PPI that is associated with mitochondrial dysfunction. To determine whether interaction of Fis1 and Drp1 was associated with the accumulation of Drp1 at the mitochondrial membrane, immunoprecipitation with Fis1 followed by immunoblotting with Drp1 was performed.

H9c2 cells [4] = experiment: Doxorubicin-induced apoptosis, FACS with DAPI and Annexin V; format: cell-based; conditions: doxorubicin-treated cells, FIG. 10A-10B
Method: as §1

H9c2 cells [5] = experiment: LPS-induced hyperfission: mitotracker green/MiNA, MitoSOX, TMRM; format: cell-based; conditions: for mitochondrial ROS (MitoSOX): FIG. 8J-8K
Method: Next, lipopolysaccharide (LPS) was used as an external stressor to trigger hyperfission. Briefly, H92c cells were seeded on day 0 and lipofected with an mRNA of a peptide expression unit comprising P110 coding sequence on day 1 and treated with TMP. After 12 hours, the medium was changed, and the cells were treated with LPS for 12 hours and mitochondrial morphology of cells was evaluated using mitotracker green staining and Mitochondrial Network Analysis (MiNA). LPS-induced changes in mitochondrial reactive oxygen species (ROS) production were evaluated using MitoSOX staining. LPS-induced changes in mitochondrial membrane potential were evaluated using TMRM staining. For the purposes of this assessment, mCherry-positive cells were assumed to express transgenic P110, whereas mCherry-negative cells were assumed to lack transgenic P110 and were assessed separately (FIG. 8D). […] LPS treatment was associated with an increase in mitochondrial ROS, which was inhibited in P110-expressing cells (FIGS. 8J-8K), and with an increase in mitochondrial membrane potential per unit volume (FIGS. 8L-8N). Taken together, expression of P110 in cells suppressed mitophagy-related changes induced by LPS treatment.

H9c2 cells [6] = experiment: Doxorubicin-induced hyperfission (MiNA) and cell death (DAPI/annexin5 FACS); format: cell-based
Method: The anti-apoptotic effect of peptide expression unit mRNA comprising the P110 coding sequence was assessed in H9c2 cells upon doxorubicin exposure, a treatment that induces mitochondrial stress, hyperfission, and cell death. Briefly, H92c cells were seeded on day 0 and lipofected with an mRNA of a peptide expression unit comprising P110 coding sequence on day 1 and treated with TMP. After 12 hours, the medium was changed, and the cells were treated with doxorubicin for 3 to 6 hours. As with LPS exposure assessments in Example 4, the effect of P110 on hyperfission was assessed via mitotracker green staining, followed by MiNA.
The increase in doxorubicin-induced fission was accompanied by an increase in footprint, a measure of mitochondrial mass, due to the expression of P110 from mRNA expression units, and by an increase in the length, number, and area of branching (FIGS. 9A-9F).

[7] = tested on: GFPP1-10 expressing A549 cells; experiment: mCherry and GFP expression in presence and absence of TMP; format: cell-based; conditions: cells transfected with mCherry-DHFR-P2A-GFPβ11, following addition of TMP, FIG. 7B
Source text: The mCherry-DHFR-P2A-GFPβ11 peptide expression unit was introduced into GFPP1-10 expressing A549 cells and mCherry and GFP expression levels were examined in the presence and absence of TMP.
Indeed, the percentage of cells expressing mCherry upon TMP treatment was similar in cells transfected with an m-Cherry only plasmid and cells transfected with a plasmid comprising the mCherry-DHFR-P2A-GFPβ11 peptide expression unit (FIGS. 7C and 7E).

[8] = doxorubicin 3 to 6 hours, FIG. 9A-9F

Sequence of Drp1-Fis1 (O00429 whole entry): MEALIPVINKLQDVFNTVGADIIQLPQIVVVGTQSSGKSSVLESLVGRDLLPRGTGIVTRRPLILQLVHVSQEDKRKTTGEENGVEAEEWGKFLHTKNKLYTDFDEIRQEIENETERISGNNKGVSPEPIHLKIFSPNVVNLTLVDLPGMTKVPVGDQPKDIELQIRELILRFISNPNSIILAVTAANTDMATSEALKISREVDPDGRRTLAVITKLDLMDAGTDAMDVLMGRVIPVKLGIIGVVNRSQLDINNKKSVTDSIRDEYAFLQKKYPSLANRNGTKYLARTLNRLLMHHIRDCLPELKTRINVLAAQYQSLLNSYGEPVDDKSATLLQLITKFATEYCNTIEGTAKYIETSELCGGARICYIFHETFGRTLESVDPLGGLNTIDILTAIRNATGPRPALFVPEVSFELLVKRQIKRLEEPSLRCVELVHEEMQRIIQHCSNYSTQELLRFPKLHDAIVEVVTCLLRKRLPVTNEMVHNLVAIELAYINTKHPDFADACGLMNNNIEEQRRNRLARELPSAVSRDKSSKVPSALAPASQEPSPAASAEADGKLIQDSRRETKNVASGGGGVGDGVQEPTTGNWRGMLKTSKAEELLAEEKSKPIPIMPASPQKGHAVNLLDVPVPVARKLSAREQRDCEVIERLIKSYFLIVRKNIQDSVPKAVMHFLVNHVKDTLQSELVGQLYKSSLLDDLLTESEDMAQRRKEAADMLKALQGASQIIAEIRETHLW

For GFP β strand 11 (GFPβ11) (peptide), the GFP-positive fraction of mCherry-positive cells (split GFP complementation), FACS, H9c2 cells [1] was 40%.

In the case of DLLPRGT [P110], the “mitochondrial respiration (oxygen consumption rate)” value (H9c2 cells [2]) is reported as “attenuated”, the basal respiration (H9c2 cells [2]) is reported as “significant attenuation” and the ATP production (H9c2 cells [2]) is reported as “significant attenuation”. For the same compound, the maximum respiration (H9c2 cells [2]) was “significant attenuation”, the spare respiratory capacity (H9c2 cells [2]) was “comparable to that observed in untreated control cells” and the proton leakage (H9c2 cells [2]) was “slightly improved”. The non-mitochondrial oxygen consumption (H9c2 cells [2]) was “significant attenuation”, the non-mitochondrial apoptotic pathways (H9c2 cells [3]; doxorubicin) was “unaffected” and the “Drp1 in mitochondrial fractions (accumulation/aggregation)” value (H9c2 cells [3]) was “significantly prevented”. For the same compound, the cytochrome c release (H9c2 cells [3]; doxorubicin, FIG. 10E-10F) was “completely suppressed”, the “cleaved caspase-3 expression (western blot)” value (H9c2 cells [3]; effects of gene transfer method and doxorubicin, FIG. 10C-10D) was “reduced” and the “Drp1 co-immunoprecipitated with Fis1” value (Drp1-Fis1) was “restored to almost control levels”. For the same compound, the “doxorubicin-induced apoptosis (DAPI/Annexin V FACS)” value (H9c2 cells [4]) was “counteracted”, the “mitochondrial ROS (MitoSOX)” value (H9c2 cells [5]; LPS treatment 12 hours) was “inhibited” and the “indications of hyperfission: branching length, area of branching points, number of branching points (MiNA)” value (H9c2 cells [5]; mCherry-positive cells, LPS 12 hours, FIG. 8D-8I) was “reversed indications of hyperfission”. The “footprint, a measure of mitochondrial mass (MiNA)” value (H9c2 cells [6]; [8]) was “increase” and the “length, number, and area of branching (MiNA)” value (H9c2 cells [6]; [8]) was “increase”.

With `COc1cccc2c1C(=O)c1c(O)c3c(c(O)c1C2=O)C[C@@](O)(C(=O)CO)C[C@@H]3O[C@H]1C[C@H](N)[C@H](O)[C@H](C)O1` [doxorubicin] the “mitochondrial respiration (oxygen consumption rate)” value (H9c2 cells [2]) was “decreased”, the basal respiration (H9c2 cells [2]) was “significantly decreased” and the ATP production (H9c2 cells [2]) was “significantly decreased”. The maximum respiration (H9c2 cells [2]) was “significantly decreased”, the spare respiratory capacity (H9c2 cells [2]) was “significantly decreased” and the proton leakage (H9c2 cells [2]) was “decrease”. The non-mitochondrial oxygen consumption (H9c2 cells [2]) was “significantly decreased”, the “Drp1 in mitochondrial fractions (accumulation/aggregation)” value (H9c2 cells [3]) was “strong accumulation” and the “Drp1 co-immunoprecipitated with Fis1” value (Drp1-Fis1) was “significantly enhanced”. The “cell death, DAPI/annexin5 double positive cells (FACS)” value (H9c2 cells [6]; doxorubicin-treated H9c2 cells, FIG. 9G-9H) was ~15 % of cells.

In the case of `COc1cc(Cc2cnc(N)nc2N)cc(OC)c1OC` [TMP, trimethoprim], the “mCherry expression (FACS)” value [7] is reported as “increased sharply”.

With lipopolysaccharide [LPS] the “mitochondrial ROS (MitoSOX)” value (H9c2 cells [5]; LPS treatment 12 hours) was “increase” and the “mitochondrial membrane potential per unit volume (TMRM)” value (H9c2 cells [5]; LPS treatment 12 hours, FIG. 8L-8N) was “increase”.
